Source: patent US20100137267A1, “FORMULATIONS FOR TREATMENT OF ADIPOSE TISSUE, CUTANEOUS TISSUE AND DISORDERS, AND MUSCULAR TISSUE” (priority 2006, published 2010)
“Also recorded” adds a separate entry of the source.

Legend:
[1] = Octanol:Water; cited from earlier work
[2] = test system: cultured human adipocytes; experiment: In vitro lipolysis assay (glycerol release) in cultured adipocytes; type: cell-based; conditions: for lipolysis after 18 hour incubation: Salmeterol 10^−6 M or 10^−8 M, Budesonide 10^−6 M in combination; for increase in lipolysis: relative to negative control (0.1% DMSO), Isoproterenol 10^−6 M positive control
Method: In the in vitro lipolysis assay, glycerol was detected in cell culture media via a spectrophotometric measurement after chemical oxidation with hydrogen peroxide. Glycerol was measured over a three hour time period. Levels of lipolysis in cultured human adipocytes were tested after exposure to a beta adrenergic agonist alone, a glucocorticosteroid alone, or the combination of the two for one or more preincubation periods as described in more detail below.
Human subcutaneous adipocytes were used in the lipolysis assay. Adipose tissue was harvested from liposuction or lipectomy and pre-adipocytes were isolated as follows. Briefly, fat tissue was minced and incubated at 37° C. in Krebs-Ringer bicarbonate buffer containing 1% bovine serum albumin and 0.1% collagenase in an oxygen-rich shaking chamber (5% CO2; 75 strokes/min) for 1 hour. The suspension was filtered through a 400 μm nylon mesh and centrifuged for 1 min at 100 g. The pre-adipocytes in the supernatant were washed twice with and then plated in 96 well plates at a density of cells/well. The pre-adipocytes were cultured in maintenance medium for seven days as they differentiated into adipocytes.
At −21 hours before the lipolysis assay, medium was removed from each well and replaced with 75 μl of Maintenance Medium containing appropriate drug or DMSO (vehicle) concentrations (see Experimental Design section below). Each test drug or control treatment was applied to 8 wells/group (12 treatment groups per 96-well plate). At −3 hours prior to the lipolysis assay, each well was washed two times with Wash Buffer (200 μl/wash), filled with test or control solutions made up in Assay Buffer (75 μl/well), and then incubated for three hours, i.e., until measurement of glycerol content in the Assay Buffer. For some groups, a drug was only added for the three hour incubation period (see Experimental and Control Groups Below).
The glycerol content of the Assay Buffer from each well following the incubation was used as an index for lipolysis, where an increase in glycerol indicated lipolysis. Glycerol levels were assayed colorimetrically via a commercial glycerol assay kit (Randox Laboratory, United Kingdom) and quantified by comparison to a glycerol serial dilution standard curve (3 μM-200 μM). Glycerol concentrations for each well were normalized to cell density.
In each of the following control or experimental groups n=8 corresponding to the glycerol measurements for 8 wells from a 96-well cell culture plate.

[3] = compared with albuterol 5, a short acting hydrophilic beta adrenergic agonist; cited from earlier work

| Compound | Log P [1] | lipolysis after 18 hour incubation ([2]; Isoproterenol 10^−6 M) | lipophilicity relative to albuterol [3] | increase in lipolysis ([2]; three hour incubation) | induction of lipolysis in cultured adipocytes (figure legend) ([2]; three hour incubation) | lipolysis compared with Isoproterenol (positive control) ([2]; three hour incubation, Isoproterenol 10^−6 M, formoterol statement holds for concentrations of 10^−6 M and above) |
| --- | --- | --- | --- | --- | --- | --- |
| COc1ccc(C[C@@H](C)NC[C@H](O)c2ccc(O)c(NC=O)c2)cc1 (racemic) [Formoterol, ±N-[2-hydroxy-5-[1-hydroxy-2-[1-(4-methoxyphenyl)propan-2-ylamino]ethyl]phenyl]methanamide] | 2-4 | – | – | – | – | – |
| OCc1cc(C(O)CNCCCCCCOCCCCc2ccccc2)ccc1O (racemic) [Salmeterol, ±2-(hydroxymethyl)-4-[1-hydroxy-2-[6-(4-phenylbutoxy)hexylamino]ethyl]-phenol] | – | decreased lipolysis; also recorded: dose-dependent suppression of lipolysis | at least 10,000 times | – | – | – |
| CC(C)NCC(O)c1ccc(O)c(O)c1 (stereo not drawn) [Isoproterenol, isoproterenol] | – | decreased lipolysis | – | about 2.5 fold | – | – |
| budesonide | – | slight suppression of lipolysis | – | up to 1.5 fold | dose-dependent induction of lipolysis | lower than that observed for Isoproterenol |
